According to patent publication US11285219B2, “Peptide-oligourea hybrid compounds” (UREKA SARL, priority 2019, dated 2022):
Numbered stars: 1 amine (or outer) side, 2 acyl side, 3 side chain; on linkers, the order of the positions; unused ones are H or OH. Bridge positions count the residues as written; N and C are the ends. Peptide text beside a SMILES is read from it. I, II: the chains in the order shown. X1 = C[C@@H](CNC(=O)N[C@@H](C)CNC(=O)[*:2])NC(=O)NC[C@H](C)N[*:1]; X7 = C[C@@H](CNC(=O)N[C@@H](C)CNC(=O)[*:1])NC(=O)NC[C@H](C)N[*:2]; X6 = CC(CNC(=O)NC(C)CNC(=O)[*:1])NC(=O)NCC(C)N[*:2]; X8 = CC(CNC(=O)NC(C)CNC(=O)[*:2])NC(=O)NCC(C)N[*:1]

These molecules were tested against T1, mouse GLP-1 receptor endogenously expressed in βTC6 cells (Mus musculus, UniProt O35659) (assay: cAMP production functional assay (HTRF), agonist activity at GLP-1R). Conditions: cAMP production; Table 1.
T1 construct: host or cells: βTC6 cells
T1 sequence (O35659 22-463): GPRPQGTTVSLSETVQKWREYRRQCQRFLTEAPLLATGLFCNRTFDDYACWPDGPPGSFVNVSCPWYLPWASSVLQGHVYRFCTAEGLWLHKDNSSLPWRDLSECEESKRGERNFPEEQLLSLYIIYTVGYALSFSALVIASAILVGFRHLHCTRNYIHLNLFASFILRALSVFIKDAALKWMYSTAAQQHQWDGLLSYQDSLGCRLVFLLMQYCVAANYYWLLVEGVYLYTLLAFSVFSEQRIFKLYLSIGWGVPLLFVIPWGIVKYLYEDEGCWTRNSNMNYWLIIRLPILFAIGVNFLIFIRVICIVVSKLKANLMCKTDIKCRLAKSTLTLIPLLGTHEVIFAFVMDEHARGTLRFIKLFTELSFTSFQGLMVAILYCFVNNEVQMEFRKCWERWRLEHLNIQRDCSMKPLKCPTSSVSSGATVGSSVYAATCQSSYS
Assay type: cell-based
Method: The agonistic activity of these hybrids were obtained by functional assays using cells expressing the […] and by measuring the receptor-mediated cAMP produced (see supporting information).
In vitro pharmacology (EC50). […] Following incubation, the cells were lysed and the fluorescence acceptor (D2-labeled cAMP) and fluorescence donor (anti-cAMP antibody labeled with europium cryptate) were added.
For `CC[C@H](C)[C@H](NC(=O)[C@H](Cc1ccccc1)NC(=O)[C@H](CCC(=O)O)NC(=O)[C@H](CCCCN)NC(=O)[C@H](C)NC(=O)[C@H](C)NC(=O)[C@H](CCC(N)=O)NC(=O)CNC(=O)[C@H](CCC(=O)O)NC(=O)[C@H](CC(C)C)NC(=O)NC[C@H](C)NC(=O)NC[C@H](C)NC(=O)NC[C@H](C)NC(=O)[C@H](CC(=O)O)NC(=O)[C@H](CO)NC(=O)[C@@H](NC(=O)[C@H](Cc1ccccc1)NC(=O)[C@@H](NC(=O)CNC(=O)[C@H](CCC(=O)O)NC(=O)CNC(=O)[C@@H](N)Cc1c[nH]cn1)[C@@H](C)O)[C@@H](C)O)C(=O)N[C@@H](C)C(=O)N[C@@H](Cc1c[nH]c2ccccc12)C(=O)N[C@@H](CC(C)C)C(=O)N[C@H](C(=O)N[C@@H](CCCCN)C(=O)NCC(=O)N[C@@H](CCCNC(=N)N)C(=O)NCC(N)=O)C(C)C` [Compound 3, GG2[A^UA^UA^U]^10-13], the “Potency (%), percentage of potency compare to GLP-1-G^2” value (“Potency (%), percentage” below) was 0.04%. With `CC[C@H](C)[C@H](NC(=O)[C@H](Cc1ccccc1)NC(=O)[C@H](CCC(=O)O)NC(=O)[C@H](CCCCN)NC(=O)[C@H](C)NC(=O)[C@H](C)NC(=O)[C@H](CCC(N)=O)NC(=O)CNC(=O)[C@H](CCC(=O)O)NC(=O)NC[C@H](C)NC(=O)NC[C@H](C)NC(=O)NC[C@H](C)NC(=O)[C@@H](NC(=O)[C@H](CC(=O)O)NC(=O)[C@H](CO)NC(=O)[C@@H](NC(=O)[C@H](Cc1ccccc1)NC(=O)[C@@H](NC(=O)CNC(=O)[C@H](CCC(=O)O)NC(=O)CNC(=O)[C@@H](N)Cc1c[nH]cn1)[C@@H](C)O)[C@@H](C)O)C(C)C)C(=O)N[C@@H](C)C(=O)N[C@@H](Cc1c[nH]c2ccccc12)C(=O)N[C@@H](CC(C)C)C(=O)N[C@H](C(=O)N[C@@H](CCCCN)C(=O)NCC(=O)N[C@@H](CCCNC(=N)N)C(=O)NCC(N)=O)C(C)C` [Compound 4, GG2[A^UA^UA^U]^11-14] (I: EGQAAKEFIAWLVKGRG-NH2 / II: H-HGEGTFTSDV; linker I:N-II:C via X7) the “Potency (%), percentage” value was 0.2%. In the case of `CC[C@H](C)[C@H](NC(=O)[C@H](Cc1ccccc1)NC(=O)[C@H](CCC(=O)O)NC(=O)[C@H](CCCCN)NC(=O)[C@H](C)NC(=O)[C@H](C)NC(=O)[C@H](CCC(N)=O)NC(=O)CNC(=O)NCC(C)NC(=O)NCC(C)NC(=O)NCC(C)NC(=O)[C@H](CO)NC(=O)[C@@H](NC(=O)[C@H](CC(=O)O)NC(=O)[C@H](CO)NC(=O)[C@@H](NC(=O)[C@H](Cc1ccccc1)NC(=O)[C@@H](NC(=O)CNC(=O)[C@H](CCC(=O)O)NC(=O)CNC(=O)[C@@H](N)Cc1c[nH]cn1)[C@@H](C)O)[C@@H](C)O)C(C)C)C(=O)N[C@@H](C)C(=O)N[C@@H](Cc1c[nH]c2ccccc12)C(=O)N[C@@H](CC(C)C)C(=O)N[C@H](C(=O)N[C@@H](CCCCN)C(=O)NCC(=O)N[C@@H](CCCNC(=N)N)C(=O)NCC(N)=O)C(C)C` (stereo partly drawn) [Compound 6, GG2[A^UA^UA^U]^12-15] (I: GQAAKEFIAWLVKGRG-NH2 / II: H-HGEGTFTSDVS; linker I:N-II:C via X6), the “Potency (%), percentage” value is reported as <0.01%. `CC[C@H](C)[C@H](NC(=O)[C@H](Cc1ccccc1)NC(=O)[C@H](CCC(=O)O)NC(=O)[C@H](CCCCN)NC(=O)[C@H](C)NC(=O)[C@H](C)NC(=O)[C@H](CCC(N)=O)NC(=O)NCC(C)NC(=O)NCC(C)NC(=O)NCC(C)NC(=O)[C@H](CO)NC(=O)[C@H](CO)NC(=O)[C@@H](NC(=O)[C@H](CC(=O)O)NC(=O)[C@H](CO)NC(=O)[C@@H](NC(=O)[C@H](Cc1ccccc1)NC(=O)[C@@H](NC(=O)CNC(=O)[C@H](CCC(=O)O)NC(=O)CNC(=O)[C@@H](N)Cc1c[nH]cn1)[C@@H](C)O)[C@@H](C)O)C(C)C)C(=O)N[C@@H](C)C(=O)N[C@@H](Cc1c[nH]c2ccccc12)C(=O)N[C@@H](CC(C)C)C(=O)N[C@H](C(=O)N[C@@H](CCCCN)C(=O)NCC(=O)N[C@@H](CCCNC(=N)N)C(=O)NCC(N)=O)C(C)C` (stereo partly drawn) [Compound 7, GG2[A^UA^UA^U]^13-16] (I: QAAKEFIAWLVKGRG-NH2 / II: H-HGEGTFTSDVSS; linker I:N-II:C via X6) was tested, and the “Potency (%), percentage” value was <0.01%. For `CC[C@H](C)[C@H](NC(=O)[C@H](Cc1ccccc1)NC(=O)[C@H](CCC(=O)O)NC(=O)[C@H](CCCCN)NC(=O)[C@H](C)NC(=O)NC[C@H](C)NC(=O)NC[C@H](C)NC(=O)NC[C@H](C)NC(=O)[C@H](CC(C)C)NC(=O)[C@H](Cc1ccc(O)cc1)NC(=O)[C@H](CO)NC(=O)[C@H](CO)NC(=O)[C@@H](NC(=O)[C@H](CC(=O)O)NC(=O)[C@H](CO)NC(=O)[C@@H](NC(=O)[C@H](Cc1ccccc1)NC(=O)[C@@H](NC(=O)CNC(=O)[C@H](CCC(=O)O)NC(=O)CNC(=O)[C@@H](N)Cc1c[nH]cn1)[C@@H](C)O)[C@@H](C)O)C(C)C)C(=O)N[C@@H](C)C(=O)N[C@@H](Cc1c[nH]c2ccccc12)C(=O)N[C@@H](CC(C)C)C(=O)N[C@H](C(=O)N[C@@H](CCCCN)C(=O)NCC(=O)N[C@@H](CCCNC(=N)N)C(=O)NCC(N)=O)C(C)C` [Compound 10, GG2[A^UA^UA^U]^15-18] (I: H-HGEGTFTSDVSSYL / II: AKEFIAWLVKGRG-NH2; linker I:C-II:N via X1), the “Potency (%), percentage” value was 0.2%. In the case of `CC[C@H](C)[C@H](NC(=O)[C@H](Cc1ccccc1)NC(=O)[C@H](CCC(=O)O)NC(=O)[C@H](CCCCN)NC(=O)NC[C@H](C)NC(=O)NC[C@H](C)NC(=O)NC[C@H](C)NC(=O)[C@H](CCC(=O)O)NC(=O)[C@H](CC(C)C)NC(=O)[C@H](Cc1ccc(O)cc1)NC(=O)[C@H](CO)NC(=O)[C@H](CO)NC(=O)[C@@H](NC(=O)[C@H](CC(=O)O)NC(=O)[C@H](CO)NC(=O)[C@@H](NC(=O)[C@H](Cc1ccccc1)NC(=O)[C@@H](NC(=O)CNC(=O)[C@H](CCC(=O)O)NC(=O)CNC(=O)[C@@H](N)Cc1c[nH]cn1)[C@@H](C)O)[C@@H](C)O)C(C)C)C(=O)N[C@@H](C)C(=O)N[C@@H](Cc1c[nH]c2ccccc12)C(=O)N[C@@H](CC(C)C)C(=O)N[C@H](C(=O)N[C@@H](CCCCN)C(=O)NCC(=O)N[C@@H](CCCNC(=N)N)C(=O)NCC(N)=O)C(C)C` [Compound 12, GG2[A^UA^UA^U]^16-19], the “Potency (%), percentage” value is reported as 0.1%. In the case of `CC[C@H](C)[C@H](NC(=O)[C@H](Cc1ccccc1)NC(=O)[C@H](CCC(=O)O)NC(=O)NC[C@H](C)NC(=O)NC[C@H](C)NC(=O)NC[C@H](C)NC(=O)CNC(=O)[C@H](CCC(=O)O)NC(=O)[C@H](CC(C)C)NC(=O)[C@H](Cc1ccc(O)cc1)NC(=O)[C@H](CO)NC(=O)[C@H](CO)NC(=O)[C@@H](NC(=O)[C@H](CC(=O)O)NC(=O)[C@H](CO)NC(=O)[C@@H](NC(=O)[C@H](Cc1ccccc1)NC(=O)[C@@H](NC(=O)CNC(=O)[C@H](CCC(=O)O)NC(=O)CNC(=O)[C@@H](N)Cc1c[nH]cn1)[C@@H](C)O)[C@@H](C)O)C(C)C)C(=O)N[C@@H](C)C(=O)N[C@@H](Cc1c[nH]c2ccccc12)C(=O)N[C@@H](CC(C)C)C(=O)N[C@H](C(=O)N[C@@H](CCCCN)C(=O)NCC(=O)N[C@@H](CCCNC(=N)N)C(=O)NCC(N)=O)C(C)C` [Compound 13, GG2[A^UA^UA^U]^17-20], the “Potency (%), percentage” value is reported as 0.01%. `CC[C@H](C)[C@H](NC(=O)NCC(C)NC(=O)NCC(C)NC(=O)NCC(C)NC(=O)[C@H](C)NC(=O)[C@H](CCC(N)=O)NC(=O)CNC(=O)[C@H](CCC(=O)O)NC(=O)[C@H](CC(C)C)NC(=O)[C@H](Cc1ccc(O)cc1)NC(=O)[C@H](CO)NC(=O)[C@H](CO)NC(=O)[C@@H](NC(=O)[C@H](CC(=O)O)NC(=O)[C@H](CO)NC(=O)[C@@H](NC(=O)[C@H](Cc1ccccc1)NC(=O)[C@@H](NC(=O)CNC(=O)[C@H](CCC(=O)O)NC(=O)CNC(=O)[C@@H](N)Cc1c[nH]cn1)[C@@H](C)O)[C@@H](C)O)C(C)C)C(=O)N[C@@H](C)C(=O)N[C@@H](Cc1c[nH]c2ccccc12)C(=O)N[C@@H](CC(C)C)C(=O)N[C@H](C(=O)N[C@@H](CCCCN)C(=O)NCC(=O)N[C@@H](CCCNC(=N)N)C(=O)NCC(N)=O)C(C)C` (stereo partly drawn) [Compound 15, GG2[A^UA^UA^U]^19-22] (I: H-HGEGTFTSDVSSYLEGQA / II: IAWLVKGRG-NH2; linker I:C-II:N via X8) was tested, and the “Potency (%), percentage” value was <0.01%. In the case of `CC(C)C[C@H](NC(=O)[C@H](Cc1ccc(O)cc1)NC(=O)[C@H](CO)NC(=O)[C@H](CO)NC(=O)[C@@H](NC(=O)[C@H](CC(=O)O)NC(=O)[C@H](CO)NC(=O)[C@@H](NC(=O)[C@H](Cc1ccccc1)NC(=O)[C@@H](NC(=O)CNC(=O)[C@H](CCC(=O)O)NC(=O)CNC(=O)[C@@H](N)Cc1c[nH]cn1)[C@@H](C)O)[C@@H](C)O)C(C)C)C(=O)N[C@@H](CCC(=O)O)C(=O)NCC(=O)N[C@@H](CCC(N)=O)C(=O)N[C@@H](C)C(=O)N[C@@H](C)C(=O)N[C@@H](CCCCN)C(=O)N[C@@H](CCC(=O)O)C(=O)N[C@@H](Cc1ccccc1)C(=O)N[C@@H](C)CNC(=O)N[C@@H](C)CNC(=O)N[C@@H](C)CNC(=O)N[C@H](C(=O)N[C@@H](CCCCN)C(=O)NCC(=O)N[C@@H](CCCNC(=N)N)C(=O)NCC(N)=O)C(C)C` [Compound 17, GG2[A^UA^UA^U]^23-26], the “Potency (%), percentage” value is reported as 0.01%.
